Reference: patent US10626094B2 (La Jolla Institute of Allergy & Immunology, priority 2014, dated 2020)

Biological target: LMPTP-A (Low Molecular Weight Protein Tyrosine Phosphatase-A) enzyme (Homo sapiens (Human), UniProt P24666)
Experiment: LMPTP primary screening / LMPTP (OMFP) enzyme inhibition assay, fluorescence intensity
Format: biochemical
Details: LMPTP-A, OMFP substrate, method of Example 2; read-out: IC50
Protocol: This assay attempts to identify inhibitors of the LMPTP-A (Low Molecular Weight Protein Tyrosine Phosphatase-A) enzyme. It is run in 1536-well format and is measured via fluorescence intensity.
A listing of materials is provided: • Item, source, catalog no. • LMPTP-A Enzyme Stock Solution (4.22 mg/ml or 206.8 μM), SBMRI Protein Facility, • N/A • OMFP, Sigma, M2629-100MG • Bis-Tris pH 6.0, Fisher Sci, BP301-100 • Triton-X 100, Sigma, T9284 • DTT, Sigma, D9779 • Mol. Grade Water, Mediatech, Inc., 46-000-CM • 1536-well black High base opaque bottom plate, Nexus Biosystems, 00019120
Final assay conditions are: • 0.625 nM LMPTP-A Enzyme • 400 μM OMFP • 50 mM Bis-Tris pH 6.0 • 1 mM DTT • 0.01% Triton-X 100 • 20 μM test compound • 3% DMSO (2% from substrate and 1% from compounds) • 6 μL reaction volume • 50 minutes incubation at room temp
Assay Procedure • 1. Prepare Reagents as described in section F. Recipe. • 2. Using LabCyte Echo, transfer 60 nL from 2 mM test compound source plate into assay plate Col. 5-48 (final concentration of test compounds is 20 μM). 60 nL of DMSO should be transferred to col. 1-4 for positive and negative control wells. • 3. Spin plates at 1000 rpm for 1 minute in centrifuge. • 4. […] Using the Bioraptr, add 3 μL/well of enzyme solution to col. 3-48. • 6. Using the Bioraptr, add 3 μL/well of substrate solution to col. 1-48. • 7. Spin plates at 1000 rpm for 1 minute in centrifuge. • 8. Incubate plates in the dark at room temperature for 50 minutes. • 9. Read plates on PerkinElmer Viewlux using a FI protocol.

Sequence of LMPTP-A (Low Molecular Weight Protein Tyrosine Phosphatase-A) enzyme (P24666 whole entry): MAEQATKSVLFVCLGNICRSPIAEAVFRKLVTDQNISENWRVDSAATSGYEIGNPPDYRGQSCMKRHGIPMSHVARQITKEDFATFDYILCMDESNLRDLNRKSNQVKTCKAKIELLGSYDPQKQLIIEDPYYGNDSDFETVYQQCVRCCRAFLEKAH

Molecule | IC50
Nc1cc(C(=O)N2CCOCC2)cc(-c2cc(NCCCN3CCCCC3)c3ccccc3n2)c1 [Compound I80] | 801 to 5000 nM
c1ccc2c(NCCCN3CCCCC3)cc(-c3ccsc3)nc2c1 [Compound I136] | > 5000 nM
(2-morpholin-4-ylethyl)(2-phenyl(4-quinolyl))amine [Compound I180] | 801 to 5000 nM
COc1ccc(-c2cc(NCCc3ccc(F)cc3)c3ccccc3n2)cc1 [Compound G87, [2-(4-fluorophenyl)ethyl][2-(4-methoxyphenyl)(4-quinolyl)]amine] | 801 to 5000 nM
Fc1cccc(-c2cc(NCCCN3CCCCC3)c3ccccc3n2)c1C(F)(F)F [Compound I223] | 801 to 5000 nM
COc1ccc(-c2cc(Nc3ccc(CN4CCOCC4)cc3)c3ccccc3n2)cc1 [Compound G52, [2-(4-methoxyphenyl)(4-quinolyl)][4-(morpholin-4-ylmethyl)phenyl]amine] | 801 to 5000 nM
COCc1ccc(-c2cc(NCCCN3CCCCC3)c3ccccc3n2)cc1 [Compound I135] | 200 to 800 nM
CCN(CC)S(=O)(=O)c1cccc(-c2cc(NCCCN3CCCCC3)c3ccccc3n2)c1 [Compound I244] | > 5000 nM
COc1ccc(-c2cc(NCCCN3CCCCC3)c3cc(OC)ccc3n2)cc1 [Compound G25, [6-Methoxy-2-(4-methoxy-phenyl)-quinolin-4-yl]-(3-piperidin-1-yl-propyl)-amine] | > 5000 nM
c1ccc2c(NCCCN3CCCCC3)cc(-c3ccc4[nH]ccc4c3)nc2c1 [Compound I110] | 801 to 5000 nM
CCN1CCC(Cc2cccc(Nc3cc(-c4cccc(NC(C)=O)c4)nc4ccccc34)c2)CC1 [Compound I237, N-{3-[4-({3-[(1-ethyl-4-piperidyl)methyl]phenyl}amino)-2-quinolyl]phenyl}acetamide] | 801 to 5000 nM
COc1ccc(-c2cc(Nc3cccc(CC4CCN(C(C)=O)CC4)c3)c3ccccc3n2)cc1 [Compound I29, 1-acetyl-4-[(3-{[2-(4-methoxyphenyl)(4-quinolyl)]amino}phenyl)methyl]piperidine] | 200 to 800 nM
COc1ccc(-c2cc(NCCCc3cccnc3)c3ccccc3n2)cc1 [Compound I203] | 801 to 5000 nM
NCCCNC(=O)c1ccc(-c2cc(NCCCN3CCCCC3)c3ccccc3n2)cc1 [Compound I195] | 200 to 800 nM
COc1ccc(-c2cc(Nc3cncc(C)n3)c3ccccc3n2)cc1 [Compound G73, [2-(4-methoxyphenyl)(4-quinolyl)](6-methylpyrazin-2-yl)amine] | 801 to 5000 nM
C1=C(c2cc(NCCCN3CCCCC3)c3ccccc3n2)OCC1 [Compound I241] | > 5000 nM
Fc1ccccc1-c1cc(NCCCN2CCCCC2)c2ccccc2n1 [Compound G6, [2-(2-Fluoro-phenyl)-quinolin-4-yl]-(3-piperidin-1-yl-propyl)-amine] | 801 to 5000 nM
CCN1CCC(Cc2cccc(Nc3cc(-c4ccc(OC)cc4)nc4ccccc34)c2)CC1 [Compound I30, {3-[(1-ethyl(4-piperidyl))methyl]phenyl}[2-(4-methoxyphenyl)(4-quinolyl)]amine] | 200 to 800 nM
CCOc1ncccc1-c1cc(NCCCN2CCCCC2)c2ccccc2n1 [Compound I96] | 801 to 5000 nM

Molecule | IC50
Cc1cc(Cl)ccc1-c1cc(NCCCN2CCCCC2)c2ccccc2n1 [Compound I134] | 801 to 5000 nM
CCOc1ccc(C(F)(F)F)c(-c2cc(NCCCN3CCCCC3)c3ccccc3n2)c1 [Compound I105] | 801 to 5000 nM
Cc1cccc(-c2cc(NCCCN3CCCCC3)c3ccccc3n2)c1 [Compound G9, (3-Piperidin-1-yl-propyl)-(2-m-tolyl-quinolin-4-yl)-amine] | 801 to 5000 nM
COc1ccc(-c2cc(Nc3cccc(CN4CCCCC4)c3)c3ccccc3n2)cc1 [Compound G54, [2-(4-methoxyphenyl)(4-quinolyl)][3-(piperidylmethyl)phenyl]amine] | 801 to 5000 nM
COc1ccc(-c2cc(NCc3ccc(Cl)cc3)c3ccccc3n2)cc1 [Compound G74, [(4-chlorophenyl)methyl][2-(4-methoxyphenyl)(4-quinolyl)]amine] | 801 to 5000 nM
COc1ccc(-c2cc(Nc3cccc(C#N)c3)c3ccccc3n2)cc1 [Compound G38, 3-[2-(4-Methoxy-phenyl)-quinolin-4-ylamino]-benzonitrile] | 200 to 800 nM
CCNC(=O)c1ccc(-c2cc(NCCCN3CCCCC3)c3ccccc3n2)cc1 [Compound I62] | 801 to 5000 nM
FC(F)(F)c1ccc(-c2cc(NCCCN3CCCCC3)c3ccccc3n2)c(C(F)(F)F)c1 [Compound I149] | 200 to 800 nM
COc1ccc(-c2cc(Nc3cccnc3)c3ccccc3n2)cc1 [Compound G64] | 801 to 5000 nM
O=C(NC1CCCC1)c1ccc(-c2cc(NCCCN3CCCCC3)c3ccccc3n2)cc1 [Compound I249] | 200 to 800 nM
O=C1Cc2ccc(-c3cc(NCCCN4CCCCC4)c4ccccc4n3)cc2N1 [Compound I221] | 801 to 5000 nM
O=C(O)CNC(=O)c1ccc(-c2cc(NCCCN3CCCCC3)c3ccccc3n2)cc1 [Compound I68] | 801 to 5000 nM
c1csc(-c2cc(NCCCC3CCCNC3)c3ccccc3n2)c1 (centres unmarked) [Compound I144, (3-piperidylpropyl)(2-(2-thienyl)(4-quinolyl))amine] | 801 to 5000 nM
COc1ccc(-c2cc(Nc3ccc(C(F)(F)F)cc3)c3ccccc3n2)cc1 [Compound G42, [2-(4-methoxyphenyl)(4-quinolyl)][4-(trifluoromethyl)phenyl]amine] | 801 to 5000 nM
FC(F)(F)c1ccc(Oc2ccc(-c3cc(NCCCN4CCCCC4)c4ccccc4n3)cn2)cc1 [Compound I87] | 801 to 5000 nM
O=C(NCCCN1CCOCC1)c1ccc(-c2cc(NCCCN3CCCCC3)c3ccccc3n2)cc1 [Compound I192] | 200 to 800 nM
{2-[3-chloro-2-(phenylmethoxy)(4-pyridyl)](4-quinolyl)}(3-piperidylpropyl)amine [Compound I88] | 801 to 5000 nM
Fc1ccc(-c2cc(NCCCN3CCCCC3)c3ccccc3n2)c(C(F)(F)F)c1 [Compound I122] | 801 to 5000 nM
O=C(NC1CCNCC1)c1ccc(-c2cc(NCCCN3CCCCC3)c3ccccc3n2)cc1 [Compound I196] | 200 to 800 nM

Molecule | IC50
COc1ccc(-c2cc(Nc3ccc(F)c(Cl)c3)c3ccccc3n2)cc1 [Compound G49, (3-chloro-4-fluorophenyl)[2-(4-methoxyphenyl)(4-quinolyl)]amine] | 801 to 5000 nM
CN(C)c1ccc(-c2cc(NCCCN3CCCCC3)c3ccccc3n2)cc1 [Compound G10, [2-(4-Dimethylamino-phenyl)-quinolin-4-yl]-(3-piperidin-1-yl-propyl)-amine] | 801 to 5000 nM
O=C(NC1CCCCC1)c1ccc(-c2cc(NCCCN3CCCCC3)c3ccccc3n2)cc1 [Compound I230] | 801 to 5000 nM
methyl 3-{4-[(3-piperidylpropyl)amino]-2-quinolyl}benzoate [Compound I155] | 801 to 5000 nM
O=C(NCC1CCNCC1)c1ccc(-c2cc(NCCCN3CCCCC3)c3ccccc3n2)cc1 [Compound I197] | 200 to 800 nM
COc1ccc(-c2cc(Nc3ccnnc3)c3ccccc3n2)cc1 [Compound G71, [2-(4-methoxyphenyl)(4-quinolyl)]pyridazin-4-ylamine] | 801 to 5000 nM
COC(=O)CNC(=O)c1ccc(-c2cc(NCCCN3CCCCC3)c3ccccc3n2)cc1 [Compound I69] | 801 to 5000 nM
{2-[2,4-bis(trifluoromethyl)phenyl](4-quinolyl)}(3-piperidylpropyl)amine [Compound I168] | 200 to 800 nM
Clc1cccc(Nc2cc(NCCCN3CCCCC3)c3ccccc3n2)c1 [Compound I76] | > 5000 nM
Fc1cc(Cl)ccc1-c1cc(NCCCN2CCCCC2)c2ccccc2n1 [Compound I126] | 200 to 800 nM
CCN(CC)CCCNC(=O)c1ccc(-c2cc(NCCCN3CCCCC3)c3ccccc3n2)cc1 [Compound I190] | 200 to 800 nM
COc1ccc(-c2cc(Nc3ccc(Br)cc3)c3ccccc3n2)cc1 [Compound G41, (4-bromophenyl)[2-(4-methoxyphenyl)(4-quinolyl)]amine] | 801 to 5000 nM
COc1ccc(-c2cc(Nc3ccn(C)n3)c3ccccc3n2)cc1 [Compound G46] | 801 to 5000 nM
CN(C)S(=O)(=O)c1ccc(C(F)(F)F)c(-c2cc(NCCCN3CCCCC3)c3ccccc3n2)c1 [Compound I106] | 801 to 5000 nM
FC(F)(F)c1ccccc1-c1cc(NCCCN2CCCCC2)c2ccccc2n1 [Compound G1, (3-piperidin-1-yl-propyl)-[2-(2-trifluoromethyl-phenyl)-quinolin-4-yl]-amine] | 801 to 5000 nM
COc1ccc(-c2cc(Nc3cccc(CC#N)c3)c3ccccc3n2)cc1 [Compound I36, 2-(3-{[2-(4-methoxyphenyl)-4-quinolyl]amino}phenyl)ethanenitrile] | 801 to 5000 nM
[2-(2,4-dichlorophenyl)(4-quinolyl)](3-piperidylpropyl)amine [Compound I103] | 801 to 5000 nM
CSc1ccc(-c2cc(NCCCN3CCCCC3)c3ccccc3n2)cc1 [Compound I169] | 801 to 5000 nM
